Columns and labels:
NF-κB in RAW-Blue cells = assay: NF-κB reporter assay (secreted embryonic alkaline phosphatase, QUANTI-Blue); format: cell-based, murine; details: 30 min preincubation, then 24 h LPS 1 μg/ml
Protocol: ROS production was measured as the relative fluorescence intensity. […] The data are expressed as the mean±SD for three separate experiments. *p<0.05, **p<0.01 compared to the LPS-treated group. RAW-Blue™ cells (Murine macrophages RAW264.7 stably transfected with the NF-κB reporter gene) purchased from InvivoGen (San Diego, Calif.). LPS (from Escherichia coli 0111:B4) and mouse antibodies against phospho-ERK1/2, phospho-JNK1/2, and phospho-p38 (all from Sigma, St. Louis, Mo.). Rabbit antibodies against mouse ERK1, JNK1, and p38, and HRP-labeled second antibodies were purchased from Santa Cruz Biotechnology, and IL-1β, IL-6, and TNF-α ELISA kits from R&D Systems. ROS production assay, NO production assay, NF-κB reporter assay, ELISA, and Western blotting were performed as described previously.

[1] = tested on: ERK1/2, JNK1/2, p38 in RAW 264.7 macrophages; assay: MAPK phosphorylation (Western blotting) in LPS-activated macrophages; format: cell-based, murine; details: Citral 10 μg/ml; LPS 1 μg/ml 0-60 min; p<0.05
Excerpt: RAW-Blue™ cells (Murine macrophages RAW264.7 stably transfected with the NF-κB reporter gene) purchased from InvivoGen (San Diego, Calif.). LPS (from Escherichia coli 0111:B4) and mouse antibodies against phospho-ERK1/2, phospho-JNK1/2, and phospho-p38 (all from Sigma, St. Louis, Mo.). Rabbit antibodies against mouse ERK1, JNK1, and p38, and HRP-labeled second antibodies were purchased from Santa Cruz Biotechnology, and IL-1β, IL-6, and TNF-α ELISA kits from R&D Systems. ROS production assay, NO production assay, NF-κB reporter assay, ELISA, and Western blotting were performed as described previously.

[2] = tested on: p47phox, Nrf2, NQO1, HO-1; assay: Mouse FSGS model: renal p47phox, nuclear Nrf2, NQO1 (Western blot) and HO-1 (ELISA); format: in vivo
Protocol: A progressive type of mouse FSGS model was used, particularly characterized by EPHLs, a key histopathology index of progression of FSGS, peri-glomerular inflammation, and progressive glomerular hyalinosis/sclerosis. The FSGS model was induced in 8-week-old male BALB/c mice (National Laboratory Animal Center, Taipei, Taiwan) by intravenous injection of a single dose of adriamycin (0.10 mg/10 g body weight) (Pfizer, New York, N.Y.) as described previously. […] Age- and sex-matched BALB/c mice were used as normal controls. Urine samples were collected in metabolic cages on days 3, 7, 14, 21, and 28. Renal cortical tissues and blood samples were collected when the mice were sacrificed and stored appropriately for further analysis. The concentration of urine protein was determined using BCA kits (Pierce, Rockford, Ill.) as described previously and normalized to urine creatinine (Cr) levels measured using kits (Wako Pure Chemical Industries, Osaka, Japan), as described previously. Serum levels of blood urea nitrogen (BUN) and Cr were determined using BUN kits and Cr kits (both from Fuji Dry-Chem Slide, Fuji Film Medical, Tokyo, Japan), as described previously. Cytoplasmic and nuclear proteins from renal tissues were prepared using a kit (Active Motif, Tokyo, Japan) according to the manufacturer's instructions and target proteins detected by immunoblotting using goat antibodies against mouse Nrf2 or p47^phox, (Santa Cruz Biotechnology, Santa Cruz, Calif.) or rabbit antibodies against mouse NQO1 (Abcam), caspase-3, caspase-8, or caspase-9 (all from Cell Signaling Technology, MA) or Bcl2 or Bax (both from Santa Cruz Biotechnology), then with horseradish-conjugated rabbit anti-goat IgG antibodies or goat-anti-rabbit IgG antibodies (both from Santa Cruz Biotechnology) as described previously. Anti-β-actin antibody (Santa Cruz Biotechnology) was used as internal controls for the nuclear and cytosolic target proteins, respectively. Renal HO-1 levels were measured using a commercial ELISA kit (R&D Systems, Minneapolis, Minn.) according to the manufacturer's instructions.

ROS and NO = assay: Mouse FSGS model: superoxide anion (ROS), DHE and NO in renal tissue, serum, urine; format: in vivo; details: days 14 and 28
Protocol: A progressive type of mouse FSGS model was used, particularly characterized by EPHLs, a key histopathology index of progression of FSGS, peri-glomerular inflammation, and progressive glomerular hyalinosis/sclerosis. The FSGS model was induced in 8-week-old male BALB/c mice (National Laboratory Animal Center, Taipei, Taiwan) by intravenous injection of a single dose of adriamycin (0.10 mg/10 g body weight) (Pfizer, New York, N.Y.) as described previously. […] Age- and sex-matched BALB/c mice were used as normal controls. Urine samples were collected in metabolic cages on days 3, 7, 14, 21, and 28. Renal cortical tissues and blood samples were collected when the mice were sacrificed and stored appropriately for further analysis. The concentration of urine protein was determined using BCA kits (Pierce, Rockford, Ill.) as described previously and normalized to urine creatinine (Cr) levels measured using kits (Wako Pure Chemical Industries, Osaka, Japan), as described previously. Serum levels of blood urea nitrogen (BUN) and Cr were determined using BUN kits and Cr kits (both from Fuji Dry-Chem Slide, Fuji Film Medical, Tokyo, Japan), as described previously. Superoxide anion levels in serum, urine, and kidney tissues were determined as described previously. The results were expressed as relative luminescence units (RLU) per 15 min per milliliter (i.e., RLU/15 min/ml) for serum and urine samples or per milligram dry weight (i.e., RLU/15 min/mg dry weight) for kidney tissues. In addition, renal superoxide anion levels were measured by dihydroethidium (DHE) binding, fluorescence being quantified by counting the percentage of the total nuclei that were positive per kidney cross section as described previously. NO levels in serum and urine were measured using NO detection kits (Abeam, Cambridge, Mass.) according to the manufacturer's instructions.

CC(C)=CCCC(C)=CC=O (racemic) [Citral, 3,7-dimethyl-2,6-octadienal]
NF-κB transcriptional activity in LPS-stimulated macrophages (NF-κB in RAW-Blue cells): reduced | LPS-induced phosphorylation of ERK1/2 [1]: significantly inhibited | LPS-induced phosphorylation of JNK1/2 [1]: significantly inhibited | decrease of nuclear Nrf2 expression ([2]; day 14, kidney): inhibited at day 14 in FSGS+Citral mice, although not statistically significant | increase of renal p47phox protein levels ([2]; day 28, cytosolic, p<0.01): inhibited | cytosolic levels of NQO1 ([2]; day 28, relative to normal control mice, p<0.01): significantly higher | nuclear Nrf2 levels ([2]; day 28, vs FSGS+vehicle (p<0.005) and normal control mice (p<0.05)): greatly increased | renal HO-1 levels ([2]; days 14 and 28, vs FSGS+vehicle mice, p<0.05 or p<0.01): significantly elevated | renal DHE levels (in situ ROS) (ROS and NO; p<0.01): suppressed | superoxide anion levels in renal tissues (ROS and NO; vs FSGS+vehicle mice, p<0.01): markedly decreased | superoxide anion levels in serum (ROS and NO; vs FSGS+vehicle mice, p<0.01): markedly decreased | superoxide anion levels in urine (ROS and NO; vs FSGS+vehicle mice, p<0.01): markedly decreased | NO levels in serum (ROS and NO; vs FSGS+vehicle, p<0.05): significantly reduced | NO levels in urine (ROS and NO; vs FSGS+vehicle, p<0.05): significantly reduced

Reference: patent publication US8993637B2 (priority 2013, dated 2015)
